{"source": "patent US20100074932A1", "about": "“ANTIMICROBIAL COMPOSITIONS CONTAINING GALLIUM” (priority 2006, published 2010)", "key": {"[1]": {"conditions": "on exposure of the coating to body fluid, based on relative solubilities in water", "description": "The differences in the solubility of the different salts in the composition will result in different and prolonged rates of release of the oligodynamic gallium in the coating composition when a device coated with the composition is exposed to body fluid. The amount of water in the final coating solution is about 30% of the total solvent weight."}, "Escherichia coli 6418 [2]": {"tested_on": "Escherichia coli 6418", "test": "Biofilm formation on catheter after two hours pre-attachment of bacteria, plate counting", "format": "cell-based", "conditions": "0.2 mM gallium nitrate, 48 hours, compared to positive control with no gallium, FIG. 4"}, "Escherichia coli 6418 [3]": {"tested_on": "Escherichia coli 6418", "test": "Microbial colonization of hydrogel coated latex foley catheter surface, plate counting", "format": "cell-based", "conditions": "0.2 mM gallium nitrate, 48 hours, compared to positive control with no gallium, FIG. 3", "protocol": "After 48 hours, catheter pieces were removed, microorganisms were recovered from the catheter surface and enumerated by plate counting methods."}}}
{"smiles": "CC(=O)[O-].CC(=O)[O-].CC(=O)[O-].[Ga+3]", "note": "[gallium acetate]", "values": [{"measurement": "order of release from the coating composition", "setting": "[1]", "result": "Then"}]}
{"smiles": "[I][Ga]([I])[I]", "note": "[gallium iodide]", "values": [{"measurement": "order of release from the coating composition", "setting": "[1]", "result": "lastly"}]}
{"smiles": "O=[N+]([O-])[O-].O=[N+]([O-])[O-].O=[N+]([O-])[O-].[Ga+3]", "note": "[gallium nitrate]", "values": [{"measurement": "biofilm formation", "setting": "Escherichia coli 6418 [2]", "result": "reduced biofilm formation"}, {"measurement": "microbial colonization of the catheter surface", "setting": "Escherichia coli 6418 [3]", "result": "reduced microbial colonization"}]}
